Test results reported in patent US20180311161A1, “AMPHIPHILIC POLYMERS ENCAPSULATING THERAPEUTICALLY ACTIVE AGENTS” (TECHNION RESEARCH & DEVELOPMENT FOUNDATION LIMITED, priority 2015, published 2018).

Legend:
[1] = system: Caco2 cell line; test: In vitro cell compatibility, MTT method; format: cell-based; conditions: crosslinker, versus only-medium control (100% viability)
Method: Since these polymeric micelles are envisioned for the administration by mucosal routes, including the oral one, their cell compatibility before and after corona-crosslinking was evaluated in a Caco2 cell line (ATCC® HTB-37™) obtained from American Type Culture Collection (ATCC®, Manassas, Va., USA).
In exemplary embodiments, cells were cultured in Eagle's Minimum Essential Medium (EMEM, Life Technologies Corp., Carlsbad, Calif., USA) supplemented with L-glutamine, 10% heat-inactivated fetal bovine serum (FBS, Sigma-Aldrich) and penicillin/streptomycin (5 mL of a commercial mixture of 100 U/mL of penicillin+100 μg/mL streptomycin per 500 mL medium, Sigma-Aldrich) and maintained at 37° C. in a humidified 5% CO2 atmosphere and split 1:10 into fresh media every three-four days. Cells were harvested by trypsinization (trypsin-EDTA 0.25%, Sigma-Aldrich) and the number of live cells was quantified the trypan blue (1%, Sigma-Aldrich) exclusion assay and a Neubauer chamber. To determine the compatibility of the polymeric micelles (expressed as percentage with respect to a blank incubated with culture medium), cells were cultured in 96-well plates (5×10^3 cells/well) and allowed to attach over 72 h. The medium in each well was replaced by different samples (concentration between 0.1%, 0.3% and 0.5% in PBS+medium) and cells incubated over 4 and 24 h. […]

[2] = Encapsulation of efavirenz in polymeric micelles (apparent solubility, solubility factor); format: physicochemical; conditions: 37° C.
Method: The encapsulation capacity of the micelles was studied with the antiretroviral efavirenz. For this, 1%, 3%, 5% and 10% w/v CS-N52 and 1% CS-N74 polymeric micelles were prepared and 2-10 mg of drug per mL of micellar suspension added. The suspension was magnetically stirred at 37° C. (48 h), filtered (1.2 μm, Minisart® NML cellulose acetate, Sartorius AG, Goettingen, Germany) to remove insoluble drug, the filtrate diluted (1/10) in distilled water and 10 mL extracted with dichloromethane (3×20 mL). The organic solution was evaporated under vacuum, re-dissolved in methanol and the absorbance measured in microplate spectrophotometer (λ=248 nm). Then, the EFV concentration was calculated by interpolation in a calibration curve in the range of 0.02-80 μg/mL (R^2>0.9999). Finally, the solubility factor (fs) was determined according to
where Sa is the apparent solubility of active agent (herein: efavirenz) in the polymeric micelles and Si is the intrinsic solubility of the active agent (efavirenz) in a polymer-free medium (7 μg/mL), at 37° C. Measurements were performed in triplicate and the results are expressed as the mean±S.D. Efavirenz-loaded micelles before and after ionotropic crosslinking were characterized for Dh, PDI and Z-potential by DLS (see above).

Si (intrinsic solubility in a polymer-free medium) [2]	Structure (SMILES)	viability of Caco2 cells (MTT) [1]
	O=P(O)(O)OP(=O)(O)OP(=O)(O)O [TPP, sodium tripolyphosphate]	did not affect the viability of the cells
7 µg/mL	O=C1Nc2ccc(Cl)cc2[C@@](C#CC2CC2)(C(F)(F)F)O1 [efavirenz]	
